The values that follow come from US6403576B1, “Antifungal and antiparasitic compounds” (priority 1998, dated 2002).

Experiment [1] concerns T.b. brucei Lab 110 EATRO. The experiment can be described thus: Growth of bloodform trypanosomes in vitro, IC50 at 48 h. The class given is cell-based, Trypanosoma brucei brucei. To be noted: for IC50: Trypanosoma brucei. An excerpt: (§1) Trypanosome (a) IN VITRO drug screening method: 14 clinical isolates of Trypanosoma brucei rhodesiense (agent of East African Sleeping Sickness) many of which are refractory to standard trypanocides such as diamidines and melarsoprol (Bacchi et al., 1990, Antimicrob Agents Chemother 34, 1183-1188) are maintained as laboratory infections in rats and mice and as frozen stabilates of blood forms. Six of these isolates have been cultivated as blood forms in modified Iscove's medium (Hirumi & Hirumi, 1989, J Parasitol 75, 985-989). These cultivated blood forms are fully infective and serve as the initial screen for trypanocides based on a 24 well culture plate system and readings done on duplicate wells using a Coulter Counter (Bacchi and Yartlett, 1993, Acta Tropica 54, 225-236; Bacchi et al., 1996, Antimicrob Agents Chemother 4, 1448-1453).
(§2) The trypanosomes studied were Trypanosoma brucei brucei Lab 110 EATRO, which is pathogenic to cattle and other livestock, and several strains of Trypanosoma brucei rhodesiense, a parasite of humans, domestic and wild animals. Strains of T. b. rhodesiense included drug resistant clinical isolates KETRI 243 and 269 and KETRI 243 As-10-3, a highly melarsen- and diamidine-resistant clone of KETRI 243. The 19 extracts were tested in an in vitro screen using a semi-defined medium for growth of bloodstream trypomastigotes at 37° C. (Hirumi & Hirumi, 1989, supra) to determine IC50 values (Bacchi et al., 1996, supra).
Inhibitory of cholesterol synthesis, metabolism, and/or excretion described above in the detailed description were tested versus trypanosome isolates grown as bloodforms in HMI-18 medium containing 10% fetal bovine serum.

The test system of experiment [2] is T.b. rhodesiense KETRI 243. The description is as above. To be noted: for IC50: Trypanosoma brucei, RHODESIENSE
The class given is cell-based, Trypanosoma brucei rhodesiense.
Excerpt: as §1, with “1448-1453). This screen has proven highly reproducible, needs minimal drug since the volume is limited (1 ml medium/well) and is complete after 48 h. It has proven to be highly predictive of in vivo activity (e.g., Brun et al., 1996, Antimicrob Agents Chemother 40, 1442-1447; Bacchi et al., 1996, supra).” for “1448-1453).”
as §2
(§3) Numerous similarities in leishmanial and trypanosomal lipid uptake and metabolism may explain common natural product drug susceptibility. Inhibitory of cholesterol synthesis, metabolism, and/or excretion described above in the detailed description were tested versus trypanosome isolates grown as bloodforms in HMI-18 medium containing 10% fetal bovine serum.

Experiment [3] deals with T.b. rhodesiense KETRI 269. The experiment is described as above. To be noted: for IC50: Trypanosoma brucei, RHODESIENSE
The class given is cell-based, Trypanosoma brucei rhodesiense.
Excerpt: as §1, with “1448-1453). This screen has proven highly reproducible, needs minimal drug since the volume is limited (1 ml medium/well) and is complete after 48 h. It has proven to be highly predictive of in vivo activity (e.g., Brun et al., 1996, Antimicrob Agents Chemother 40, 1442-1447; Bacchi et al., 1996, supra).” for “1448-1453).”
as §2, §3

Experiment [4] relates to T.b. rhodesiense KETRI 243 As-10-3. The description is as above. The class given is cell-based. To be noted: Trypanosoma brucei.
Excerpt: as §1, with “1448-1453). This screen has proven highly reproducible, needs minimal drug since the volume is limited (1 ml medium/well) and is complete after 48 h. It has proven to be highly predictive of in vivo activity (e.g., Brun et al., 1996, Antimicrob Agents Chemother 40, 1442-1447; Bacchi et al., 1996, supra).” for “1448-1453).”
as §2, §3

The target of another experiment is Squalene Synthetase. Particulars: Abe et al, 1994; cited from earlier work.
For the next experiment, the target named is Squalene Oxidase (Homo sapiens, UniProt Q14534). To be noted: Abe et al, 1994; cited from earlier work.
Chain of Squalene Oxidase (Q14534 whole entry): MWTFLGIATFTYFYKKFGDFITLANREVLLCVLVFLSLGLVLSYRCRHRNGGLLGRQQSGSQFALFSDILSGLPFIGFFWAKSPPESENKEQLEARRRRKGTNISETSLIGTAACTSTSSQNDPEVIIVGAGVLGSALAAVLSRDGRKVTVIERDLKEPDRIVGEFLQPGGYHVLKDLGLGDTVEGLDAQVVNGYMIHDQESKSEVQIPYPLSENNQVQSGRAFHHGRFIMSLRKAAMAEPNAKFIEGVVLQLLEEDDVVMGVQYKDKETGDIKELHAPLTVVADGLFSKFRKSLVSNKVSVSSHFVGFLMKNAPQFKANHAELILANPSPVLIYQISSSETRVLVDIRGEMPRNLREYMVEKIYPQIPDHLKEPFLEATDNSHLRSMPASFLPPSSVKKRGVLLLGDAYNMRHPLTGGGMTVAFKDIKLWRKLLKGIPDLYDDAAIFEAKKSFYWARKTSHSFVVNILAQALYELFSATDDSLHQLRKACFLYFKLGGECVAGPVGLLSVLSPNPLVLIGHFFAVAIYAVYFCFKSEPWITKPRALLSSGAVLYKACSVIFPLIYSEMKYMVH
Another experiment relates to J-774 A.1 macrophages. To be noted: 10 uM; not from mevalonate; cited from earlier work.
The test system of experiment [5] is macrophage cholesterol synthesis. Particulars: cited from earlier work.
[6] abbreviates: Table 7, HMI-18 medium, 10% fetal bovine serum, 48 h, read-out: IC50 Lab 110 EATRO.
[7] abbreviates: Table 7, HMI-18 medium, 10% fetal bovine serum, 48 h, read-out: IC50 243.
Where [8] appears, read: Table 7, HMI-18 medium, 10% fetal bovine serum, 48 h, read-out: IC50 269.
Setting [9] is: read-out: IC50 KETRI 243 As-103.
[10] abbreviates: Table 7, HMI-18 medium, 10% fetal bovine serum, 48 h.

In brackets after ≈: the same amount, converted by molar mass. Structures can show the parent of a compound that is named as a salt. Where two headings read alike, the source gives them in different places.

In general, IC50 refers to the midpoint of a concentration-inhibition curve. In the case of `CCC(C)(C)C(=O)O[C@H]1C[C@@H](C)C=C2C=C[C@H](C)[C@H](CC[C@@H]3C[C@@H](O)CC(=O)O3)[C@H]21` (relative stereo) [Zocor, [1S-[1-alpha(beta-S*,delta-S*), 2-alpha, 6-alpha,8-beta(R*),8a-alpha]]2,2-dimethylbutanoic acid 1,2,3,7,8,8a-hexahydro-3,7-dimethyl-8-[2-(tetrahydro-4-hydroxy-6-oxo-2H-pyran-2-yl)ethyl]-1-naphthalenyl ester], the results for the half-inhibitory concentration (IC50) in experiment [1] (setting [6]), in experiment [2] (setting [7]) and in experiment [3] (setting [8]) were 1.33 µg/mL (≈ 3.18 µM), 12.9 µg/mL (≈ 30.8 µM) and 7 µg/mL (≈ 16.7 µM), respectively.

Turning to `Nc1nc(N)nc(Nc2ccc([As]=O)cc2)n1` (centres unmarked) [Melarsen Oxide], the IC50 in experiment [1] (48 h, read-out: IC50 EATRO 110) is 0.00077 µg/mL; in experiment [2] (48 h, read-out: IC50 KETRI 243) it was 0.0025 µg/mL; in experiment [3] (48 h, read-out: IC50 KETRI 269), 0.0066 µg/mL; in experiment [4] (setting [9]), 0.0072 µg/mL.

For `CC(=O)O[C@H](CCC[C@]12O[C@H](C(=O)O)[C@@](O)(C(=O)O)[C@](C(=O)O)(O1)[C@H](OC(=O)CC/C=C/[C@H](C)CCCc1ccccc1)[C@H]2O)[C@H](C)Cc1ccccc1` [Zaragozic acid C], the IC50 at Squalene Synthetase was 0.045 nM.

As for `C=C(CC[C@]12O[C@H](C(=O)O)[C@@](O)(C(=O)O)[C@](C(=O)O)(O1)[C@H](OC(=O)/C=C/[C@@H](C)C[C@@H](C)CC)[C@H]2O)[C@@H](OC(C)=O)[C@H](C)Cc1ccccc1` [Squalestatin 1], the concentration for half-maximal inhibition (IC50) at Squalene Synthetase was 15.2 nM.

`CC(=O)OC1OC(OC2C(OC3CC[C@@]4(C)C(=CCC5C4CC[C@@]4(C)C5CC5OC6(CC[C@@H](C)CO6)[C@@H](C)[C@@]54O)C3)OC(CO)C(O)C2OC2OC(C)C(O)C(O)C2O)C(O)C(O)C1O` (some centres unmarked) [SU-1461, Mannispirostan A]: the IC50 in experiment [1] (Table 2, secondary extracts, * extracts precipitated in medium after 24 h, read-out: IC50 T.b. brucei 110) came to 6.4 µg/mL (≈ 6.89 µM).

As to `CC[C@H](C)C(=O)O[C@H]1C[C@@H](C)C=C2C=C[C@H](C)[C@H](CC[C@@H]3C[C@@H](O)CC(=O)O3)[C@H]21` (relative stereo) [Mevacor, Butanoic acid, 2-methyl-,1,2,3,7,8,8a-hexahydro-3,7-dimethyl-8-[2-(tetrahydro-4-hydroxy-6-oxo-2H-pyran-2-yl)ethyl]-1-naphthalenyl ester,[1S[1alpha(R*),3alpha,7beta,8beta(2S*,4S*), 8abeta]]-], in experiment [1], the “IC50 Lab 110 EATRO” value was determined as 3.3 µg/mL (≈ 8.16 µM). Also, the “IC50 243” value in experiment [2] (setting [10]) amounted to 4.4 µg/mL (≈ 10.9 µM). In experiment [3] (setting [10]), the “IC50 269” value came out at 6.9 µg/mL (≈ 17.1 µM).

As to `Cc1ccc(C)c(OCCCC(C)(C)C(=O)O)c1` [Lopoid, Pentanoic acid, 5-(2,5-dimethylphenoxy)-2,2-dimethyl-], the IC50 in experiment [1] (setting [6]) and in experiment [2] (setting [7]) was above 100 µg/mL throughout.

On to `C=C(CC[C@]12O[C@H](C(=O)O)[C@@](O)(C(=O)O)[C@](C(=O)O)(O1)[C@H](O)[C@H]2O)[C@@H](OC(C)=O)[C@H](C)Cc1ccccc1` [Squalestatin 3], for which the half-maximal inhibitory concentration (IC50) on Squalene Synthetase is 5.9 nM.

Consider `CN(C/C=C/c1ccccc1)Cc1cccc2ccccc12` [Naftifine, 1-Naphthalenemethanamine, N-methyl-N-(3-phenyl-2-propenyl)-(E)], for which, at Squalene Oxidase, the IC50 is 930 nM.

Take `CC(C)n1c(/C=C/C(O)CC(O)CC(=O)O)c(-c2ccc(F)cc2)c2ccccc21` (racemic) [Lescol, 6-Heptenoic acid, 3,5-dihydro-7-[3-(4-fluorophenyl)-1-(1-methylethyl)-1H-indol-2-yl-]-[R*,S*-(E)]-, (+−)-]: the “IC50 Lab 110 EATRO” value in experiment [1] (setting [10]) is above 100 µg/mL. In addition, the “IC50 243” value in experiment [2] (setting [10]) was above 100 µg/mL.

In the case of `N=C(N)c1ccc(OCCCCCOc2ccc(C(=N)N)cc2)cc1` [Pentamidine], the IC50 was 0.00048 µg/mL (≈ 0.00141 µM) in experiment [1] (Table 1, 48 hr cultures, HMI-18 medium, read-out: IC50 EATRO 110); 0.00186 µg/mL (≈ 0.00546 µM) in experiment [2] (Table 1, 48 hr cultures, HMI-18 medium, read-out: IC50 KETRI 243); 0.00192 µg/mL (≈ 0.00564 µM) in experiment [3] (Table 1, 48 hr cultures, HMI-18 medium, read-out: IC50 KETRI 269); 0.003 µg/mL (≈ 0.00881 µM) in experiment [4] (setting [9]).

Take `C=C(CC[C@]12O[C@H](C(=O)O)[C@@](O)(C(=O)O)[C@](C(=O)O)(O1)[C@H](OC(=O)/C=C/[C@@H](C)C[C@@H](C)CC)[C@H]2O)[C@@H](OC(C)=O)[C@H](C)Cc1ccccc1` [Zaragozic acid A]: the IC50 at Squalene Synthetase is 0.078 nM.

Take `C/C=C/CCCC/C=C/CCCCC(=O)O[C@@H]1[C@@H](O)[C@@]2(CCC(C)C(O)C(C)C/C=C/c3ccccc3)O[C@H](C(=O)O)[C@@](O)(C(=O)O)[C@]1(C(=O)O)O2` (some centres unmarked) [Zaragozic acid B]: on Squalene Synthetase, the half-inhibitory concentration (IC50) was 0.029 nM.

For the compound `CCOC(=O)C(C)(C)Oc1ccc(Cl)cc1` [Atromid-S, Propanoic acid, 2-(4-chlorophenoxy)-2-methyl-, ethyl ester], the IC50 in experiment [1] (setting [6]) and in experiment [2] (setting [7]) was above 100 µg/mL in each case.

On to `CN(C/C=C/C#CC(C)(C)C)Cc1cccc2ccccc12` [Lamisil, 1-Naphthalenemethanamine, N-(6,6-dimethyl-2-hepten-4-ynyl)-N-methyl-, (E)-], for which the IC50 was 1.3 µg/mL (≈ 4.46 µM) in experiment [1] (setting [6]), 86 µg/mL (≈ 295 µM) in experiment [2] (setting [7]), 77 µg/mL (≈ 264 µM) in experiment [3] (setting [8]) and above 100 µg/mL in experiment [4] (read-out: IC50 243 As 10-3).

`CC1=C(/C=C/C(C)=C/C=C/C(C)=C/C=C/C=C(C)/C=C/C=C(C)/C=C/C2=C(C)CCCC2(C)C)C(C)(C)CCC1` [beta-carotene]: the “cholesterol synthesis inhibited from acetate” value in the experiment on J-774 A.1 macrophages is listed as 63%.

For `CCN(C/C=C/C#CC(C)(C)C)Cc1cccc(OCc2cc(-c3ccsc3)cs2)c1` [NB-598], the IC50 on Squalene Oxidase was 0.75 nM.

Regarding `COCc1c(C(C)C)nc(C(C)C)c(/C=C/[C@@H](O)C[C@@H](O)CC(=O)O)c1-c1ccc(F)cc1` [Baycol, 7-[4-(4-fluorophenyl)-5-(methoxymethyl)-2,6-bis(1-methylethyl)-3-pyridinyl]-3,5-dihydroxy-, monosodium salt, [S-(R*,S*-(E))]]-], the concentration for half-maximal inhibition (IC50) in experiment [1] (setting [6]) amounted to 13 µg/mL; in experiment [2] (setting [7]) it was 7.7 µg/mL; in experiment [4] (read-out: IC50 243 As 10-3), 52 µg/mL.

In the case of `C=C(CC[C@]12O[C@H](C(=O)O)[C@@](O)(C(=O)O)[C@](C(=O)O)(O1)[C@H](OC(=O)/C=C/[C@@H](C)C[C@@H](C)CC)[C@H]2O)[C@@H](O)[C@H](C)Cc1ccccc1` [Squalestatin 2], at Squalene Synthetase, the IC50 was 15.1 nM.

In the case of `CC[C@H](C)C(=O)O[C@H]1C[C@H](O)C=C2C=C[C@H](C)[C@H](CC[C@@H](O)C[C@@H](O)CC(=O)O)[C@H]21` [Pravachol, [1S-(1-alpha(beta-S*,delta-S*),2-alpha, 6-alpha,8-beta(R*),8a-alpha]]-1,2,6,7,8,8a-hexahydro-2-methyl-8-(2-methyl-1-oxobutoxy)-beta,delta,6-trihydroxy-1-Naphthaleneheptanoic acid monosodium salt], in experiment [1] (setting [6]), the IC50 is above 100 µg/mL. In addition, in experiment [5] (0.1 mg/ml pravastatin), the LDL increased is reported as 119%. Moreover, in experiment [5], the “concentration that increased cholesterol esterification” value was at most 0.19 mg/mL and the “concentration that inhibited cholesterol esterification” value was above 0.19 mg/mL. Besides, in experiment [5] (humans, 40 mg/day for 8 weeks), the “increased LDL degradation” value is recorded as 57% and the inhibited cholesterol synthesis is 55-62%. Besides, the 50% inhibitory concentration (IC50) in experiment [2] (setting [7]) was above 100 µg/mL.
